Measurements from US20230039711A1, “AHR INHIBITORS AND USES THEREOF” (Ikena Oncology, Inc., priority 2020, published 2023).

What was measured:
[1] = system: human T cell; assay: Human T cell assays; assay type: cell-based
[2] = Nonclinical safety, single-dose and repeated-dose toxicological studies in rodent and non-rodent species; assay type: in vivo; settings: species not specified for these findings
[3] = Nonclinical safety studies incl. 28-day GLP study in rat; assay type: in vivo; settings: rats
[4] = system: other receptors, transporters, and kinases; assay: Selectivity for AHR over other receptors, transporters, and kinases
[5] = molecular target: T1, AHR (Homo sapiens, UniProt P35869); assay: AHR translocation from cytoplasm to nucleus in the presence of a ligand, and downstream signaling in in vivo tumor models
T1 construct: host or cells: in vivo tumor models (not specified)
T1 sequence (P35869 11-848): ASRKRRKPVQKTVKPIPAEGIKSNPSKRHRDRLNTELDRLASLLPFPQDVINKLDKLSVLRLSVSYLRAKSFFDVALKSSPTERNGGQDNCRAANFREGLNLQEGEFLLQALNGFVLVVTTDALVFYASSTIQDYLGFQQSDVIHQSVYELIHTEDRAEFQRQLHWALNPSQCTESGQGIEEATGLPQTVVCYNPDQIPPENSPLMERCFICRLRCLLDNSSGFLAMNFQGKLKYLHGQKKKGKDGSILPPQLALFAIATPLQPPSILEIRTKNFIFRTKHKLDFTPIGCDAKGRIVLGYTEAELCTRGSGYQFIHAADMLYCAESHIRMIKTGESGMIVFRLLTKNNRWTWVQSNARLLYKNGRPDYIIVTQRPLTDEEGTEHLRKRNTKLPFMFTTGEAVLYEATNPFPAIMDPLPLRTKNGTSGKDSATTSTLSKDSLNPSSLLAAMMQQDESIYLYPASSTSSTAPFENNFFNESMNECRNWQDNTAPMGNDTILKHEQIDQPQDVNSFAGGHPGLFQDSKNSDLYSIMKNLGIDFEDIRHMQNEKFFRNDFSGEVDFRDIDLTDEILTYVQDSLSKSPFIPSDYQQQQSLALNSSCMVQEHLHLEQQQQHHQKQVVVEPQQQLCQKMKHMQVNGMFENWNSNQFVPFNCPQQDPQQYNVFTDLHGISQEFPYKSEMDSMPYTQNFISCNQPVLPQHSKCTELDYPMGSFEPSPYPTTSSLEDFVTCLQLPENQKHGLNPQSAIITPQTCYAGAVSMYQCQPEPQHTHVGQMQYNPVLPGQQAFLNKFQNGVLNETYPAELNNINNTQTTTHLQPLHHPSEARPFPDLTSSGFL

[6] = Nonclinical safety studies incl. 28-day GLP study in monkeys; assay type: in vivo, monkey
[7] = Monotherapy dosing in human patients, safety; assay type: in vivo; settings: 200 mg, 400 mg, 800 mg, and 1200 mg once daily (QD)

CYP1A1 gene expression [1]: inhibits
selectivity for AHR over other receptors, transporters, and kinases [4]: highly selective for AHR
AHR translocating from the cytoplasm to the nucleus and downstream signaling [5]: effectively blocks
SMILES: CC(C)c1cnn2c(N[C@@H]3CCc4[nH]c5ccccc5c4C3)nc(-c3cncc(F)c3)nc12 [Compound A, (R)-N-(2-(5-fluoropyridin-3-yl)-8-isopropylpyrazolo[1,5-a][1,3,5]triazin-4-yl)-2,3,4,9-tetrahydro-1H-carbazol-3-amine]
T cell state [1]: induces an activated T cell state
interleukin (IL)-22 gene expression [1]: inhibits
pro-inflammatory cytokine IL-2 [1]: increase
pro-inflammatory cytokine IL-9 [1]: increase
noteworthy findings of potential relevance to humans (general) [2]: emesis, loose stool, dehydration, body weight loss
stomach findings [3]: nonglandular stomach ulceration and edema
testicular findings ([3]; not resolved after 2 weeks of dosing cessation): seminiferous tubule degeneration and debris in the epididymis lumen
thymus weights and cortical lymphocytes ([6]; monkey): decreased
QTc prolongation ([6]; monkeys): up to 11%
serious adverse events (SAEs) [7]: no serious adverse events
